Measurements from patent US20250092030A1, “ENHANCERS OF PARTICULATE GUANYLYL CYCLASE RECEPTOR A” (Mayo Foundation for Medical Education and Research, priority 2023, published 2025).
Several values for one entry are separate records, joined by “and”; a condition that tells them apart may be missing. Equal values may be shown once.

Molecular target: T1, particulate guanylyl cyclase receptor A (pGC-A) (Homo sapiens, UniProt P16066)
T1 construct: expressed in transfected cells; host or cells: HEK293
T1 sequence (P16066 33-1061): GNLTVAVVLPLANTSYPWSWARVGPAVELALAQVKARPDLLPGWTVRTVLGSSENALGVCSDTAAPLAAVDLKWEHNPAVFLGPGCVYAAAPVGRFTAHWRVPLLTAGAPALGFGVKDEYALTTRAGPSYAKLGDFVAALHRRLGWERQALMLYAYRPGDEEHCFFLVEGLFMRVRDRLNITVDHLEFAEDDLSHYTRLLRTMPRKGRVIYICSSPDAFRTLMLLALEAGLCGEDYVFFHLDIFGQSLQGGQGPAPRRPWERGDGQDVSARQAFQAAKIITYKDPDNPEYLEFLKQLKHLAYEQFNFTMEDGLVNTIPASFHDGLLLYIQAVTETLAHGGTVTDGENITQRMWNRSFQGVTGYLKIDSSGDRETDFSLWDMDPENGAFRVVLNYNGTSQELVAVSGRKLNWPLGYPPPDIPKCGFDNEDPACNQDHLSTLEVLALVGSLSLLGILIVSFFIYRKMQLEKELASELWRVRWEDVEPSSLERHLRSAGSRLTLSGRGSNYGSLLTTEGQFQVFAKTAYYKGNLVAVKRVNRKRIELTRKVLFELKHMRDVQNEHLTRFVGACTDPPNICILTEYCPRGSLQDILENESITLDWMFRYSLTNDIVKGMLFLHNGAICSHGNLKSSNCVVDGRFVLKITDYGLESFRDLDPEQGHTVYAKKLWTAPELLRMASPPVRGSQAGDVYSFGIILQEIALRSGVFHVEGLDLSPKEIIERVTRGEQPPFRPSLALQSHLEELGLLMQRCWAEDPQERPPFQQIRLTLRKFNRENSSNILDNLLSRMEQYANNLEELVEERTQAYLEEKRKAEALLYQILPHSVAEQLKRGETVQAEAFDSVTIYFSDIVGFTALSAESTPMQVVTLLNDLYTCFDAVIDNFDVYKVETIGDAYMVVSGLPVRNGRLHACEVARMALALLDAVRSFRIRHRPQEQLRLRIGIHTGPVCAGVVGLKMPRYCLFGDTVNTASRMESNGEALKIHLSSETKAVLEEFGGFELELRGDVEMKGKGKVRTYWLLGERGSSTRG
T1 sequence (P01160 124-151 partner limits assumed): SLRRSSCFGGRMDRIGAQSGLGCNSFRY
Assay: cGMP production by HTRF in HEK293 cells overexpressing pGC-A, with ANP
Assay type: cell-based
Settings: for Emax: HEK293, HEK293 cells overexpressing pGC-A, read-out: Max efficacy; for Emax / Max efficacy: cGMP normalized to maximal amount produced by an EC80 concentration of ANP; for EC50 / Max efficacy: HEK293 cells overexpressing pGC-A; for EC50: test compound plus EC20 concentration of ANP, cGMP by HTRF
Description: Assay: Generally, the assay monitors the production of cGMP, the second messenger generated by pGC-A, by Time-Resolved Florescence (HTRF) in HEK293 cells overexpressing the pGC-A. pGC-A suspension cells were stimulated in the presence of the test compound and an EC20 concentration of ANP. The quantity of cGMP was detected by competitive immunoassay using Eu^3+ cryptate-labeled anti-cGMP and d2-labeled cGMP and normalized to maximal amount produced by an EC80 concentration of ANP. Compound EC50 values were determined in the primary assay, in the presence or absence of ANP, to determine mode of action as positive modulators and tested for selectivity in the same assay platform but in HEK cells overexpressing the particulate guanylyl cyclase B receptor (pGC-B), of which CNP is the endogenous ligand.
Assay details: 20 nL of 10 μM test compound in DMSO was added to columns 5-48 of 1536 well white high base screening plates (Corning, New York, NY) cells using 550 ECHO acoustic dispenser (Labcyte, San Jose, CA). Alpha-atrial natriuretic peptide (ANP) (Phoenix Pharmaceutics) was prepared as stock aliquots at 5 μM in PBS with 0.1% BSA. An approximate […] concentration of ANP ([…]) in assay buffer (HBSS containing 5 mM HEPES and 0.05% BSA) was added to columns 3-48 at a volume of 1 μL. Assay buffer only was added to column 1 and assay buffer containing a saturating concentration of ANP (5 nM) was added to column 2. HEK293 cells overexpressing GC-A were resuspended in assay media (OptimMem media containing 2% Heat-inactivated Fetal bovine serum and L-glutamine) at a density of 6×10^5 cells/mL and 2 μL were plated in screening plates (1200 cells/well) in suspension using a Bioraptr 2. Plates were spun at 1000 rpm for 1 min and incubated for 30 min at room temperature. 1.5 μL d2-labeled cGMP followed by 1.5 μL Eu^3+ cryptate-labeled anti-cGMP cGMP detection kit (CiBio; #62GM2PEC) prepared according to manufacturer's protocol were added to all wells using a Bioraptr 2 and TR-FRET signal was detected on an EnVision detector (PerkinElmer). Wells treated with 0.3% DMSO only serve as blank controls (column 1); wells treated with 0.3% DMSO and 5 nM ANP (columns 2) serve as positive controls and wells treated with 0.3% DMSO and […] ANP (columns 3-4) serve as negative controls.

An Emax of 41% and an EC50 of 0.6 µM were found for `CN(C)CCN1CCCC(C(=O)Nc2nc3c(C#N)cccc3s2)C1` (stereo not drawn) [compound 007] in this work.

In the case of `COc1ccc(C(=O)Nc2nc3c(F)cc(F)cc3s2)cc1` [compound 205], the EC50 is reported as > 10 µM.

An Emax of 93% and an EC50 of 0.2 µM were found for `CN1CCC(N2CCCC(C(=O)Nc3nc4c(F)cc(F)cc4s3)C2)CC1` (stereo not drawn) [compound 071] in this work.

An Emax of 65% and an EC50 of 0.4 µM were found for `Cc1cncnc1N1CCCC(C(=O)Nc2nc3c(F)cc(F)cc3s2)C1` (stereo not drawn) [compound 111] in this work.

For `O=C(Nc1nc2c(F)cc(F)cc2s1)c1ccccc1Cl` [compound 200], the EC50 was > 10 µM.

An Emax of 93% and an EC50 of 1.5 µM were found for `CN(C)CCN1CCC(C(=O)Nc2nc3c(F)cc(F)cc3s2)CC1` [compound 227] in this work.

An Emax of 105% and an EC50 of 5.8 µM were found for `CN(C)CCN1CCCC(C(=O)Nc2nc3c(F)cccc3s2)C1` (stereo not drawn) [compound 224] in this work.

With `Cn1cc(N2CCCC(C(=O)Nc3nc4c(F)cc(F)cc4s3)C2)cn1` (stereo not drawn) [compound 078] the Emax was 86%, the Max efficacy was 81% and the EC50 was 4.9 µM and 2.1 µM.

With `O=C(Nc1nc2c(F)cc(F)cc2s1)C1CCCN(CCN2CCCC2=O)C1` (stereo not drawn) [compound 245] the Emax was 102% and the EC50 was 4.5 µM and 1.8 µM.

For `O=C(Nc1nc2c(F)cc(F)cc2o1)C1CCCNC1` (stereo not drawn) [compound 248], the EC50 was > 5 µM.

In the case of `CN(C)CCN1CCCC(C(=O)Nc2nc3c(F)cc(F)cc3[nH]2)C1` (stereo not drawn) [249a], the EC50 is reported as > 5 µM.

For `O=C(Nc1nc2c(F)cc(F)cc2s1)C1CCCN(Cc2ccncc2)C1` (stereo not drawn) [compound 110], the Emax was 95%, the Max efficacy was 78% and the EC50 was 0.46 µM and 1.1 µM.

An Emax of 70% and an EC50 of 0.28 µM were found for `O=C(Nc1nc2c(Cl)cc(F)cc2s1)C1CCCN(c2ccncc2)C1` (stereo not drawn) [compound 104] in this work.

In the case of `COC(=O)c1cc(F)c2nc(NC(=O)C3CCCN(CCN(C)C)C3)sc2c1` (stereo not drawn) [compound 023], the EC50 is reported as > 5 µM.

For `CN(C)CCN1CCCC(C(=O)Nc2nc3c(F)cc(-c4ccccc4)cc3s2)C1` (stereo not drawn) [compound 022], the EC50 was > 5 µM.

In the case of `CN(C)CCN1CCCC(C(=O)Nc2nc3c(-c4ccccc4)cccc3s2)C1` (stereo not drawn) [compound 003], the EC50 is reported as > 10 µM.

An Emax of 105% and an EC50 of 0.7 µM were found for `CN(C)CC(=O)N1CCCC(C(=O)Nc2nc3c(F)cc(F)cc3s2)C1` (stereo not drawn) [compound 230] in this work.

An Emax of 79% and an EC50 of 0.2 µM were found for `COC(=O)CN1CC(N2CCCC(C(=O)Nc3nc4c(Cl)cc(F)cc4s3)C2)C1` (stereo not drawn) [compound 139] in this work.

An Emax of 80% and an EC50 of 1.1 µM were found for `CN1CCCC(CN2CCCC(C(=O)Nc3nc4c(F)cc(F)cc4s3)C2)C1` (stereo not drawn) [compound 074] in this work.

An Emax of 70% and an EC50 of 2.6 µM were found for `CC(C)NC(=O)N1CCCC(C(=O)Nc2nc3c(F)cc(F)cc3s2)C1` (stereo not drawn) [compound 278] in this work.

With `CN1CCC(N2CCCC(C(=O)Nc3nc4c(F)cc(F)cc4s3)C2)C1` (stereo not drawn) [compound 069] the Max efficacy was 89-98% and the EC50 was 0.03 to 0.2 µM.

For `CN(C)CCN1CCCC(NC(=O)c2nc3c(F)cc(F)cc3s2)C1` (stereo not drawn) [compound 217], the EC50 was > 10 µM.

An Emax of 56% and an EC50 of 0.1 µM were found for `O=C(Nc1nc2c(Cl)cc(F)cc2s1)C1CCCN(c2ccnnc2)C1` (stereo not drawn) [compound 115] in this work.

For `O=C(Nc1nc2c(F)cc(F)cc2c(=O)[nH]1)C1CCCNC1` (stereo not drawn) [compound 183], the EC50 was > 5 µM.

An Emax of 87% was found for `N[C@@H]1CCCC(C(=O)Nc2nc3c(F)cc(F)cc3s2)C1` (stereo partly drawn) [compound 208] in this work.

In the case of `Cc1ccccc1-c1csc(NC(=O)C2CCCN(CCN(C)C)C2)n1` (stereo not drawn) [compound 151], the EC50 is reported as > 5 µM.

With `CN(C)CCN1CCCC(C(=O)Nc2nc3c(Cc4ccccc4)cccc3s2)C1` (stereo not drawn) [compound 004] the EC50 was > 10 µM.

In the case of `CN(C)CCN1CCCC(C(=O)Nc2nc(-c3ccc(Cl)cc3)cs2)C1` (stereo not drawn) [compound 150], the EC50 is reported as > 5 µM.

An Emax of 74% and an EC50 of 1.3 µM were found for `O=C(Nc1nc2c(F)cc(F)cc2s1)C1CCCN(CCN2CCCC2C(=O)O)C1` (stereo not drawn) [compound 259] in this work.

An Emax of 94% and an EC50 of 1.02 µM were found for `CN(C)CCN1CC2(C(=O)Nc3nc4c(Cl)cc(F)cc4s3)CCC1CC2` [compound 061] in this work.

An Emax of 80% and an EC50 of 0.08 µM were found for `CCC(C)N1CC(N2CCCC(C(=O)Nc3nc4c(Cl)cc(F)cc4s3)C2)C1` (stereo not drawn) [compound 137] in this work.
